# Patent publication US20230094076A1, “COMBINATION THERAPY” (GlaxoSmithKline Intellectual Property Development Limited, priority 2016, published 2023)
# Key:
# [1] = target: PRMT5/MEP50 (Homo sapiens, UniProt O14744); experiment: PRMT family radioactive assay; format: biochemical; settings: 60 minute SAM:Enzyme:Compound A preincubation
# [2] = tested on: Lymphoma cell lines; settings: 59 cell lines
# Procedure: (§1) The growth of all cell lines was evaluated over time across a wide range of seeding densities to identify conditions that permitted proliferation throughout the entire 6-day assay. Cells were plated at the optimal seeding density and after overnight incubation, a 20-point 2-fold titration of compound was added and plates were incubated for 6 days. A replicate plate of cells was harvested at the time of compound addition to quantify the starting number of cells (T0). Values obtained after the 6 day treatment were expressed as a function of the T0 value and plotted against compound concentration. The T0 value was normalized to 100% and represents the number of cells at the time of compound addition. The data were fit with a 4 parameter equation to generate a concentration response curve and the growth IC50 (gIC50) was determined. The gIC50 is the midpoint of the ‘growth window’, the difference between the number of cells at the time of compound addition (To) and the number of cells after 6 days (DMSO control). The growth-death assay can be used to quantify the net population change, clearly defining cell death (cytotoxicity) as fewer cells compared to the number at the time of compound addition (T0).
# [3] = tested on: Melanoma cell lines; settings: 7 cell lines
# Procedure: as §1
# [4] = tested on: SK-MEL-5; settings: SK-MEL-5, melanoma, 6-day
# Procedure: as §1
# [5] = tested on: G-402; settings: G-402, Leiomyoblastoma, 6-day
# Procedure: as §1
# [6] = tested on: TF-1; settings: TF-1, AML subtype M6, 6-day
# Procedure: as §1
# [7] = tested on: Kidney cancer cell lines; settings: percent of cell lines, 10 cell lines
# Procedure: as §1
# [8] = tested on: COLO741; settings: COLO741, melanoma, 6-day
# Procedure: as §1
# [9] = tested on: 786-O; settings: ccRCC, 6-day
# Procedure: as §1
# [10] = tested on: HL-60; settings: HL-60, AML subtype M3, 6-day
# Procedure: as §1
# [11] = tested on: A375; settings: A375, melanoma, 6-day
# Procedure: as §1
# [12] = tested on: MOLM-16; settings: MOLM-16, AML subtype M0, 6-day
# Procedure: as §1
# [13] = tested on: NSCLC cell lines; settings: percent of cell lines, 25 cell lines
# Procedure: as §1
# [14] = tested on: Prostate cancer cell lines; settings: 4 cell lines
# Procedure: as §1
# [15] = tested on: IGR-1; settings: IGR-1, melanoma, 6-day
# Procedure: as §1
# [16] = tested on: AML cell lines; settings: 10 cell lines
# Procedure: as §1
# [17] = tested on: ACHN; settings: ccRCC, 6-day
# Procedure: as §1
# [18] = tested on: HT144; settings: HT144, melanoma, 6-day
# Procedure: as §1
# [19] = tested on: MDA-MB-; settings: melanoma, 6-day
# Procedure: as §1
# [20] = tested on: 196 human cancer cell lines (Total); settings: percent of cell lines, 196 cell lines
# Procedure: as §1
# [21] = tested on: OCI-; settings: AML subtype M4, 6-day
# Procedure: as §1
# [22] = tested on: A498; settings: A498, ccRCC, 6-day
# Procedure: as §1
# [23] = tested on: Colon cancer cell lines; settings: percent of cell lines, 34 cell lines
# Procedure: as §1
# [24] = tested on: MOLM-13; settings: MOLM-13, AML subtype M5, 6-day
# Procedure: as §1
# [25] = tested on: SKM-1; settings: SKM-1, AML subtype M5, 6-day
# Procedure: as §1
# [26] = tested on: G-401; settings: G-401, Wilm's, 6-day
# Procedure: as §1
# [27] = target: PRMT4 (Homo sapiens, UniProt Q86X55); experiment: PRMT family radioactive assay; format: biochemical
# [28] = tested on: arginine methylation (ADMA, MMA, SDMA) in Toledo cells; experiment: Durability of arginine methylation changes after compound washout (western); format: cell-based, human; settings: 0.4 μM for 72 hours, then washout
# Procedure: (A) Stability of changes to ADMA. […] (B) Representative western blots of arginine methylation marks. Regions quantified for (A) are denoted by black bars on the side of the gel.
# Cells were then washed, cultured in Compound A-free media, samples were collected daily through 120 hours, and arginine methylation levels were examined by western analysis. […] SDMA appeared to continue to increase even after 6 hours of washout. This is consistent with the continued increase observed through 120 hours without any obvious plateau (FIG. 12) coupled with the durable increase in MMA that has not yet returned to baseline after washout. Durability of each modification generally reflected the kinetics of arginine methylation changes brought about by Compound A, with MMA being the most rapid.
# Sequence of PRMT4 (Q86X55 whole entry): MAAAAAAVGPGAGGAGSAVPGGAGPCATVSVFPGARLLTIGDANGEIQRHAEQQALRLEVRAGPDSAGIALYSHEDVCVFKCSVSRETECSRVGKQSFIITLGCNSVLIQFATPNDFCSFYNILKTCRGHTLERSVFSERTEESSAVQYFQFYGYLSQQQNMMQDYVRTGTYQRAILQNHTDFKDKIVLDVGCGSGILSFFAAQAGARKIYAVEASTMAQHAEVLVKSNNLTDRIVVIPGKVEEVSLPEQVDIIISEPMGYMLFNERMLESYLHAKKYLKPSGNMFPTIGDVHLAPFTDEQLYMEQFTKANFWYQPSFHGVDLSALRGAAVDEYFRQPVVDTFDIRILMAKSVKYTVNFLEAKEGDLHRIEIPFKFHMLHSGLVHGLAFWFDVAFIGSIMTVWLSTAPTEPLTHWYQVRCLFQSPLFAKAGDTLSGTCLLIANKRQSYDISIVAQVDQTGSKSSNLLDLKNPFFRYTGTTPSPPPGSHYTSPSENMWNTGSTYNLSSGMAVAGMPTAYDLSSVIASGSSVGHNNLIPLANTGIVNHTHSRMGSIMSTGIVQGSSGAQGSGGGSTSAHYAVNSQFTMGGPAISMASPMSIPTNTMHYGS
# Sequence of PRMT5/MEP50 (O14744 whole entry): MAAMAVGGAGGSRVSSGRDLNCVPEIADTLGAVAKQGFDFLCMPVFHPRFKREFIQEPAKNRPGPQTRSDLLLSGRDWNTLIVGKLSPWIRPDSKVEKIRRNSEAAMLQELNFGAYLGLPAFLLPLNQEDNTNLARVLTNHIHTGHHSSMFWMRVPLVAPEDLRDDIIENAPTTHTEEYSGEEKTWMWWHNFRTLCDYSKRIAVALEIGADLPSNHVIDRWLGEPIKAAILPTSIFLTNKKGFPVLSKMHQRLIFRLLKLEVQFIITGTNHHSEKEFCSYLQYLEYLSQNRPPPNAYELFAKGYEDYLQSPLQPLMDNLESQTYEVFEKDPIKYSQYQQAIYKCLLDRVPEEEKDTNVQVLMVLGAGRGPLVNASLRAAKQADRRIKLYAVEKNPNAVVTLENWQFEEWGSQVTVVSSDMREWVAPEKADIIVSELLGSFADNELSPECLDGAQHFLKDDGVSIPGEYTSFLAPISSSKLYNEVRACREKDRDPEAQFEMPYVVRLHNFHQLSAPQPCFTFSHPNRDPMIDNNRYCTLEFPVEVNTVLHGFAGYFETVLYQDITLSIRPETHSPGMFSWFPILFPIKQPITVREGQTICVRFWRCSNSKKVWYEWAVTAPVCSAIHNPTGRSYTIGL
# Sequence of PRMT5/MEP50 (Q9BQA1 whole entry partner): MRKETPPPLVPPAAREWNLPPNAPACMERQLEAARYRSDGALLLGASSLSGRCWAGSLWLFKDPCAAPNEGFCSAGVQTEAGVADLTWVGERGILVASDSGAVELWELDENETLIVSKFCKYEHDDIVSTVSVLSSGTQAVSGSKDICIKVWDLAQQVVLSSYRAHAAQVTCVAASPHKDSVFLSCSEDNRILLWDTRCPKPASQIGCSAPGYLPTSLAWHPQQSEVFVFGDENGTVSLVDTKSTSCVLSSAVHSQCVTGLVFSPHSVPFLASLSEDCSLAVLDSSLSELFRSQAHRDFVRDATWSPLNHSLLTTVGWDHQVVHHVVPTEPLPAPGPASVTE
compound,measurement,setting,value
CCOCC1(COCC)CCC(c2n[nH]cc2CN(C)CCNC)CC1 [Compound A],inhibition of activity,[1],failed to inhibit
same,Median gIC100,[2]; 6-day proliferation,21.62 µM
same,% Cytotoxic,[2]; percent of cell lines,54%
same,% gIC100 < 2,[2]; percent of cell lines,14%
same,Median gIC100,[3]; 6-day proliferation,29.33 µM
same,% Cytotoxic,[3]; percent of cell lines,0%
same,% gIC100 < 2,[3]; percent of cell lines,0%
same,Ymin − T0,[4],31.8
same,gIC100,[4],27.09 ± 3.92 µM
same,Ymin − T0,[5],92.6
same,gIC100,[6],29.33 ± 0.00 µM
same,Ymin − T0,[6]; negative = cell death,788.1
same,% Cytotoxic,[7],0%
same,% gIC100 < 2,[7],0%
same,Ymin − T0,[8],12.5
same,gIC100,[8],28.55 ± 1.40 µM
same,Ymin − T0,[9],643.7
same,gIC100,[10],6.38 ± 12.83 µM
same,Ymin − T0,[10]; negative = cell death,−33.4
same,Ymin − T0,[11],91.9
same,gIC100,[11],29.33 ± 0.00 µM
same,gIC100,[12],9.69 ± 10.58 µM
same,Ymin − T0,[12]; negative = cell death,−68.6
same,% Cytotoxic,[13],16%
same,% gIC100 < 2,[13],0%
same,Median gIC100,[14]; 6-day proliferation,29.34 µM
same,% Cytotoxic,[14]; percent of cell lines,0%
same,% gIC100 < 2,[14]; percent of cell lines,0%
same,Ymin − T0,[15],507.0
same,gIC100,[15],29.33 ± 0.00 µM
same,number of cell lines with induced cytotoxicity,[16]; 6-day proliferation assay,5
same,% Cytotoxic,[16]; percent of cell lines,50%
same,% gIC100 < 2,[16]; percent of cell lines,0%
same,Ymin − T0,[17],96.5
same,Ymin − T0,[18],124.9
same,gIC100,[18],29.33 ± 0.00 µM
same,Ymin − T0,[19],19.1
same,gIC100,[19],29.33 ± 0.00 µM
same,% gIC100 < 2,[20],4%
same,gIC100,[21],29.33 ± 0.00 µM
same,Ymin − T0,[21]; negative = cell death,523.2
same,Ymin − T0,[22],313.4
same,% Cytotoxic,[23],3%
same,% gIC100 < 2,[23],0%
same,gIC100,[24],8.64 ± 0.39 µM
same,Ymin − T0,[24]; negative = cell death,−100.0
same,gIC100,[25],11.61 ± 5.52 µM
same,Ymin − T0,[25]; negative = cell death,−19.1
same,Ymin − T0,[26],353.7
same,inhibition of activity,[27]; 60 minute SAM:Enzyme:Compound A preincubation,inhibited the activity
same,time dependence of inhibition,[27]; increasing preincubation times,time dependent inhibitor
same,time for ADMA to return to baseline after washout,[28],≤ 24 h
same,time for MMA to return to baseline after washout,[28],≤ 24 h
same,time for SDMA to return to baseline after washout,[28],≤ 96 h
